Where two headings read alike, the source gives them in different places.
Tested on: mouse T lymphocytes
Assay: T-cell proliferation assay (ionomycin plus PMA induced T-cell stimulation, tritiated thymidine uptake)
Assay type: cell-based, C57B1/6 mice
Settings: for IC50: read-out: IC₅₀, inhibition of T-cell proliferation
Description: The principle of this assay is to measure the proliferation of mouse T lymphocytes stimulated with the combination of ionomycin plus PMA. A positive sample in this assay will inhibit T-cell proliferation, as indicated by reduced tritiated thymidine uptake.
Purified demethimmunomycin, as prepared by HPLC above, was dissolved in absolute ethanol at 1 mg/ml.
Spleens from C57B1/6 mice were taken under sterile conditions and gently dissociated in ice-cold RPMI 1640 culture medium (GIBCO, Grand Island, N.Y.) supplemented with 10% heat-inactivated fetal calf serum (GIBCO). Cells were pelleted by centrifugation at 1500 rpm for 8 minutes. Contaminating red cells were removed by treating the pellet with ammonium chloride lysing buffer (GIBCO) for 2 minutes at 4°C. Cold medium was added and cells were again centrifuged at 1500 rpm for 8 minutes. T lymphocytes were then isolated by separation of the cell suspension on nylon wool columns as follows: Nylon wool columns were prepared by packing approximately 4 grams of washed and dried nylon wool into 20 ml plastic syringes. The columns were sterilized by autoclaving at 250°F [120°C] for 30 minutes. Nylon wool columns were wetted with warm (37°C) culture medium and rinsed with the same medium. Washed spleen cells resuspended in warm medium were slowly applied to the nylon wool. The columns were then incubated in an upright position at 37°C for 1 hour. Non-adherent T lymphocytes were eluted from the columns with warm culture medium and the cell suspensions were spun as above.
Purified T lymphocytes were resuspended at 2.5 x 10⁵ cells/ml in complete culture medium composed of RPMI 1640 medium with 10% heat-inactivated fetal calf serum, […] glutamine, 1 mM sodium pyruvate, 2 x 10⁻⁵ M 2-mercaptoethanol and 50 »g/ml gentamycin. Ionomycin was added at 250 ng/ml and PMA at 10 ng/ml. The cell suspension was immediately distributed into 96 well flat-bottom microculture plates (Costar)(registered trade mark) at 200 »l/well. The control, being the medium without test drug, and various below-indicated dilutions of the sample (above-described purified demethimmunomycin) to be tested were then added in triplicate wells at 20 »l/well. L-679,934 was used as a standard. The culture plates were then incubated at 37°C in a humidified atmosphere of 5% CO₂-95% air for 44 hours. The proliferation of T lymphocytes was assessed by measurement of tritiated thymidine incorporation. After 44 hours of culturing, the cells were pulse-labelled with 2 »Ci/well of tritiated thymidine (NEN, Cambridge, MA). After another 4 hours of incubation, cultures were harvested on glass fiber filters using a multiple sample harvester. Radioactivity of filter discs corresponding to individual wells was measured by standard liquid scintillation counting methods (Betacounter). Mean counts per minute of replicate wells were calculated and the results expressed as percent inhibition of tritiated thymidine uptake (proliferation) as follows: [formula]
• 1. Mouse T cell cultures were pulsed with ³H-thymidine for 4 hours prior to harvesting at 48 hours. • 2. […] IC₅₀ = 1.4 ng/ml = 1.81 nM, for demethimmunomycin, (L-638,742), and generally in the range of 1.6 to 1.9 x 10⁻⁹ molar. • 4. Inhibition of T-cell proliferation by demethimmunomycin was reversed by the addition of 50»/ml of IL-2 (recombinant IL-2) at the initiation of culture.

[1] = Mus musculus, T-lymphocyte, 48 h

## CC[C@@H]1/C=C(\C)C[C@H](C)C[C@H](OC)[C@H]2O[C@@](O)(C(=O)C(=O)N3CCCC[C@H]3C(=O)O[C@H](/C(C)=C/[C@@H]3CC[C@@H](O)[C@H](O)C3)[C@H](C)[C@@H](O)CC1=O)[C@H](C)C[C@@H]2OC [demethimmunomycin, 31-desmethoxy-31-hydroxy-L-683,590]
[1]
  inhibition at 0.0006 µg/mL: 0%
  inhibition at 0.0009 µg/mL: 9%
  inhibition at 0.0013 µg/mL: 38.2%
  inhibition at 0.0019 µg/mL: 72.1%
  inhibition at 0.0029 µg/mL: 86.3%
  inhibition at 0.0044 µg/mL: 91.9%
  inhibition at 0.0066 µg/mL: 97.9%
Mus musculus, T-lymphocyte
  IC50: 1.4 ng/mL
Mus musculus, T-lymphocyte, range generally found
  IC50: 1.6 to 1.9 nM
Mus musculus, T-lymphocyte, same value as 1.4 ng/ml, given in molar terms
  IC50: 1.81 nM
Addition of recombinant IL-2 at the initiation of culture
  Inhibition of T-cell proliferation on addition of IL-2: reversed

From patent publication EP0349061B1, “Immunosuppressant agent” (Merck & Co., Inc., priority 1988, dated 1990)
